In patent US20250032576A1, “CNP Therapy” (BIOMARIN PHARMACEUTICAL INC., priority 2021, published 2025):

Assays:
[1] = system: children aged 3 to 60 months; design: species or system human; details: in vivo, sc
Source text: See also PCT Application No. PCT/US22/73605.

[2] = clinical; details: human, in vivo
Source text: Studies from rodent pups, growing lambs and children support the view that circulating levels of CNP products in plasma (CNP and NTproCNP) are sourced largely from growth plate or closely related tissues (Espiner 2018, supra). Measurement of any possible impact on endogenous proCNP production of administered CNP 1-37 Pro Gly (which strongly cross-reacts with CNP but not NTproCNP assay) is therefore only feasible using plasma concentrations of NTproCNP adjusted for age and sex (SDS). […] It is instructive to compare these dynamic changes in CNP with those found in short non Ach children of similar age starting daily doses of Human Growth Hormone (HGH) (Olney, et al. Clin Endocrinol (Oxf) 85:561-568, 2016). In that setting, similar inflections in AGV were associated with increase in NTproCNP (mean 11 pmol/L, delta 22% at day 21) in contrast to the concurrent fall of NTproCNP (approximately 6 pmol/L, range 3-11 pmol/L, delta-12%) at Day 29 during 15-30 μg/kg/d Vosoritide treatment in Cohorts 3 and 4. […] These kinetic responses could relate to the estimated times (approximately 20-22 days) (Sansone et al., J Pediatr Orthop 29:61-67, 2009) for recruited chondrocytes to traverse the respective zones of the expanding growth plate and populate the primary spongiosa.
This temporal constraint may relate to the early growth spurt observed in many of the children studied. […]

[3] = human, in vivo
Experimental: (§1) In an ongoing Phase II study of CNP therapy in children, a group of patients age 3 to 6 months (cohort 3) were administered CNP (BMN111) at a dose of 30 μg/kg daily subcutaneously, and changes in annualized growth volume, changes in height, and skull morphology were measured.

[4] = clinical; details: human, in vivo; for Tmax: Median [range] Tmax; for Cmax: Mean (SD) Cmax
Experimental: as §1

half-life [2]: 28 min
Median [range] Tmax ([3]; 15 ug/kg): 15.0 [7.0, 31.0] min
Mean (SD) Cmax ([3]; 30 ug/kg): 13,500 (6770) pg/mL
Mean (SD) AUC0-t ([3]; sc, 30 ug/kg): 323,000 (129,000) pg-min/mL
Tmax ([4]; 15 ug/kg): 15 min
Cmax ([4]; 30 ug/kg): 10.1 ng/mL
Tmax ([4]; 30 ug/kg): 14 min
Cmax ([4]; sc, 15 ug/kg): 4.43 ng/mL
half-life ([4]; sc, 15 ug/kg, Mean (SD) t1/2): 21.7 min
Tmax ([4]; sc, 15 ug/kg): 15 min
AUC(0-t) ([4]; sc, 30 ug/kg, Mean (SD) AUC0-t): 9.12 ng·h/mL
Cmax ([4]; sc, 30 ug/kg): 14.5 ng/mL
Compound: CC[C@H](C)[C@@H]1NC(=O)[C@H](CCCNC(=N)N)NC(=O)[C@H](CC(=O)O)NC(=O)[C@H](CC(C)C)NC(=O)[C@H](CCCCN)NC(=O)[C@H](CC(C)C)NC(=O)CNC(=O)[C@H](Cc2ccccc2)NC(=O)[C@@H](NC(=O)CNC(=O)[C@H](CCCCN)NC(=O)[C@H](CO)NC(=O)[C@H](CC(C)C)NC(=O)CNC(=O)[C@H](CCCCN)NC(=O)[C@H](CCCCN)NC(=O)[C@H](CC(N)=O)NC(=O)[C@H](C)NC(=O)CNC(=O)[C@H](CCCCN)NC(=O)[C@H](Cc2ccc(O)cc2)NC(=O)[C@H](CCCCN)NC(=O)[C@H](CCCNC(=N)N)NC(=O)[C@H](C)NC(=O)[C@H](CC(N)=O)NC(=O)[C@@H]2CCCN2C(=O)[C@H](Cc2c[nH]cn2)NC(=O)[C@H](CCC(=O)O)NC(=O)[C@H](CCC(N)=O)NC(=O)CNC(=O)[C@@H]2CCCN2)CSSC[C@@H](C(=O)O)NC(=O)CNC(=O)[C@H](CC(C)C)NC(=O)CNC(=O)[C@H](CO)NC(=O)[C@H](CCSC)NC(=O)[C@H](CO)NC(=O)CNC1=O [Vosoritide]
overall adverse-event profile [1]: generally mild
